{"source": "patent US4684664A", "about": "“Derivatives of β-(4-isocyano-1,2,3,4-diepoxycyclopentyl) acrylic acid” (Kureha Kagaku Kogyo Kabushiki Kaisha, priority 1984, dated 1987)", "type_in_all_cases": "cell-based", "key": {"[1]": {"test_system": "Streptococcus pyogenes Cook", "assay": "Antibacterial activity, agar-dilution MIC, organism No. 4", "details": "Streptococcus pyogenes, read-out: Minimum Inhibitory Concentration", "in_short": "(§1)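 Agar dilution, bouillon-agar plates; MIC reported in μg/ml of medium.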"}, "[2]": {"test_system": "Pseudomonas aeruginosa NCTC 10490", "assay": "Antibacterial activity, agar-dilution MIC, organism No. 16", "details": "Pseudomonas aeruginosa, NCTC10490, read-out: Minimum Inhibitory Concentration", "in_short": "as §1"}, "[3]": {"test_system": "Klebsiella pneumoniae PCI-602", "assay": "Antibacterial activity, agar-dilution MIC, organism No. 7", "details": "Klebsiella pneumoniae, PCI602, read-out: Minimum Inhibitory Concentration", "in_short": "as §1"}, "[4]": {"test_system": "Staphylococcus aureus FDA 209PJc-1", "assay": "Antibacterial activity, agar-dilution MIC, organism No. 1", "details": "Staphylococcus aureus, FDA209PJC1, read-out: Minimum Inhibitory Concentration", "in_short": "as §1"}, "Enterobacter cloacae 963": {"test_system": "Enterobacter cloacae 963", "assay": "Antibacterial activity, agar-dilution MIC, organism No. 24", "details": "Enterobacter cloacae, 963, read-out: Minimum Inhibitory Concentration", "in_short": "as §1"}, "[5]": {"test_system": "Pseudomonas aeruginosa IFO 3445", "assay": "Antibacterial activity, agar-dilution MIC, organism No. 15", "details": "Pseudomonas aeruginosa, IFO3445, read-out: Minimum Inhibitory Concentration", "in_short": "as §1"}, "[6]": {"test_system": "Aspergillus niger IFO 6342", "assay": "Antifungal activity, agar-dilution MIC, organism No. 30", "details": "Aspergillus niger, IFO6342, read-out: Minimum Inhibitory Concentration", "in_short": "as §1"}, "[7]": {"test_system": "Serratia marcescens IAM 1184", "assay": "Antibacterial activity, agar-dilution MIC, organism No. 13", "details": "Serratia marcescens, IAM1184, read-out: Minimum Inhibitory Concentration", "from_the_text": "Agar-dilution method was used for determination of the antibacterial activity and antifungal activity while using bouillon-agar culture medium, and the minimum inhibitory concentration of the specimen was expressed by μg/ml of the culture medium."}, "[8]": {"test_system": "Pseudomonas aeruginosa PAO 1", "assay": "Antibacterial activity, agar-dilution MIC, organism No. 17", "details": "Pseudomonas aeruginosa, PAO1, read-out: Minimum Inhibitory Concentration", "in_short": "as §1"}, "[9]": {"test_system": "Escherichia coli K12 C600 IAM 1264", "assay": "Antibacterial activity, agar-dilution MIC, organism No. 6", "details": "Escherichia coli, IAM1264, read-out: Minimum Inhibitory Concentration", "in_short": "as §1"}, "[10]": {"test_system": "Staphylococcus aureus Terajima", "assay": "Antibacterial activity, agar-dilution MIC, organism No. 2", "details": "Staphylococcus aureus, read-out: Minimum Inhibitory Concentration", "in_short": "as §1"}, "[11]": {"test_system": "Candida albicans IAM 4905", "assay": "Antifungal activity, agar-dilution MIC, organism No. 29", "details": "Candida albicans, IAM4905, read-out: Minimum Inhibitory Concentration", "in_short": "as §1"}, "[12]": {"test_system": "Salmonella enteritidis G 14", "assay": "Antibacterial activity, agar-dilution MIC, organism No. 12", "details": "Salmonella enterica, ENTERITIDIS, read-out: Minimum Inhibitory Concentration", "in_short": "as §1"}, "[13]": {"test_system": "Staphylococcus aureus MS 353", "assay": "Antibacterial activity, agar-dilution MIC, organism No. 3", "details": "Staphylococcus aureus, MS353, read-out: Minimum Inhibitory Concentration", "in_short": "as §1"}, "Proteus vulgaris HX-19": {"test_system": "Proteus vulgaris HX-19", "assay": "Antibacterial activity, agar-dilution MIC, organism No. 21", "details": "Proteus vulgaris, HX19, read-out: Minimum Inhibitory Concentration", "in_short": "as §1"}, "[14]": {"test_system": "Bacillus subtilis ATCC 6633", "assay": "Antibacterial activity, agar-dilution MIC, organism No. 14", "details": "Bacillus subtilis, ATCC6633, read-out: Minimum Inhibitory Concentration", "in_short": "as §1"}, "[15]": {"test_system": "Salmonella paratyphi-A 1015", "assay": "Antibacterial activity, agar-dilution MIC, organism No. 10", "details": "Salmonella enterica, PARATYPHI, read-out: Minimum Inhibitory Concentration", "in_short": "as §1"}, "[16]": {"test_system": "Escherichia coli NIHJ-JC-2", "assay": "Antibacterial activity, agar-dilution MIC, organism No. 5", "details": "Escherichia coli, NIHJJC2, read-out: Minimum Inhibitory Concentration", "in_short": "as §1"}, "[17]": {"test_system": "Micrococcus luteus ATCC 9341", "assay": "Antibacterial activity, agar-dilution MIC, organism No. 25", "details": "Micrococcus luteus, ATCC9341, read-out: Minimum Inhibitory Concentration", "in_short": "as §1"}, "[18]": {"test_system": "Proteus mirabilis IFO 3849", "assay": "Antibacterial activity, agar-dilution MIC, organism No. 19", "details": "Proteus mirabilis, IFO3849, read-out: Minimum Inhibitory Concentration", "in_short": "as §1"}, "[19]": {"test_system": "Streptococcus faecium IFO 3826", "assay": "Antibacterial activity, agar-dilution MIC, organism No. 27", "details": "Enterococcus faecium, IFO3826, read-out: Minimum Inhibitory Concentration", "in_short": "as §1"}, "[20]": {"test_system": "Salmonella shottmuelleri 8006", "assay": "Antibacterial activity, agar-dilution MIC, organism No. 11", "details": "Salmonella, 8006, read-out: Minimum Inhibitory Concentration", "in_short": "as §1"}, "[21]": {"test_system": "Salmonella typhimurium IID 971", "assay": "Antibacterial activity, agar-dilution MIC, organism No. 8", "details": "Salmonella enterica, read-out: Minimum Inhibitory Concentration", "in_short": "as §1"}, "[22]": {"test_system": "Enterobacter aerogenes ATCC 13048", "assay": "Antibacterial activity, agar-dilution MIC, organism No. 23", "details": "Klebsiella aerogenes, ATCC13048, read-out: Minimum Inhibitory Concentration", "in_short": "as §1"}, "Salmonella typhi 901": {"test_system": "Salmonella typhi 901", "assay": "Antibacterial activity, agar-dilution MIC, organism No. 9", "details": "Salmonella enterica, TYPHI, read-out: Minimum Inhibitory Concentration", "in_short": "as §1"}, "[23]": {"test_system": "Proteus morganii IFO 3848", "assay": "Antibacterial activity, agar-dilution MIC, organism No. 18", "details": "Morganella morganii, IFO3848, read-out: Minimum Inhibitory Concentration", "in_short": "as §1"}, "Proteus vulgaris OX-19": {"test_system": "Proteus vulgaris OX-19", "assay": "Antibacterial activity, agar-dilution MIC, organism No. 20", "details": "Proteus vulgaris, OX19, read-out: Minimum Inhibitory Concentration", "in_short": "as §1"}, "[24]": {"test_system": "Streptococcus pyogenes IFO 3340", "assay": "Antibacterial activity, agar-dilution MIC, organism No. 26", "details": "Streptococcus pyogenes, IFO3340, read-out: Minimum Inhibitory Concentration", "in_short": "as §1"}, "[25]": {"test_system": "Proteus rettgeri IFO 3850", "assay": "Antibacterial activity, agar-dilution MIC, organism No. 22", "details": "Providencia rettgeri, IFO3850, read-out: Minimum Inhibitory Concentration", "in_short": "as §1"}}}
{"smiles": "[C-]#[N+]C12CC3(/C=C/C(=O)Nc4ccc(OC)cc4)OC3C1O2", "note": "(centres unmarked) [compound 53]", "values": [{"measurement": "MIC", "setting": "[1]", "value": 6.25, "unit": "mg/L"}, {"measurement": "MIC", "setting": "[2]", "value": "> 200", "unit": "mg/L"}, {"measurement": "MIC", "setting": "[3]", "value": "< 0.05", "unit": "mg/L"}, {"measurement": "MIC", "setting": "[4]", "value": "< 0.05", "unit": "mg/L"}, {"measurement": "MIC", "setting": "Enterobacter cloacae 963", "value": 50, "unit": "mg/L"}, {"measurement": "MIC", "setting": "[5]", "value": "> 200", "unit": "mg/L"}, {"measurement": "MIC", "setting": "[6]", "value": 1.56, "unit": "mg/L"}, {"measurement": "MIC", "setting": "[7]", "value": 25, "unit": "mg/L"}, {"measurement": "MIC", "setting": "[8]", "value": "> 200", "unit": "mg/L"}, {"measurement": "MIC", "setting": "[9]", "value": 3.13, "unit": "mg/L"}, {"measurement": "MIC", "setting": "[10]", "value": "< 0.05", "unit": "mg/L"}, {"measurement": "MIC", "setting": "[11]", "value": 0.79, "unit": "mg/L"}, {"measurement": "MIC", "setting": "[12]", "value": 0.39, "unit": "mg/L"}, {"measurement": "MIC", "setting": "[13]", "value": "< 0.05", "unit": "mg/L"}, {"measurement": "MIC", "setting": "Proteus vulgaris HX-19", "value": "< 0.05", "unit": "mg/L"}, {"measurement": "MIC", "setting": "[14]", "value": 6.25, "unit": "mg/L"}, {"measurement": "MIC", "setting": "[15]", "value": "< 0.05", "unit": "mg/L"}, {"measurement": "MIC", "setting": "[16]", "value": 12.5, "unit": "mg/L"}, {"measurement": "MIC", "setting": "[17]", "value": "< 0.05", "unit": "mg/L"}, {"measurement": "MIC", "setting": "[18]", "value": 3.13, "unit": "mg/L"}, {"measurement": "MIC", "setting": "[19]", "value": 6.25, "unit": "mg/L"}, {"measurement": "MIC", "setting": "[20]", "value": "< 0.05", "unit": "mg/L"}, {"measurement": "MIC", "setting": "[21]", "value": 1.56, "unit": "mg/L"}, {"measurement": "MIC", "setting": "[22]", "value": "> 200", "unit": "mg/L"}, {"measurement": "MIC", "setting": "Salmonella typhi 901", "value": 0.39, "unit": "mg/L"}, {"measurement": "MIC", "setting": "[23]", "value": "< 0.05", "unit": "mg/L"}, {"measurement": "MIC", "setting": "Proteus vulgaris OX-19", "value": "< 0.05", "unit": "mg/L"}, {"measurement": "MIC", "setting": "[24]", "value": 0.39, "unit": "mg/L"}, {"measurement": "MIC", "setting": "[25]", "value": 0.78, "unit": "mg/L"}]}
{"smiles": "[C-]#[N+]C12CC3(/C=C/C(=O)Nc4ccncc4)OC3C1O2", "note": "(centres unmarked) [compound 72]", "values": [{"measurement": "MIC", "setting": "[1]", "value": 12.5, "unit": "mg/L"}, {"measurement": "MIC", "setting": "[2]", "value": "> 200", "unit": "mg/L"}, {"measurement": "MIC", "setting": "[3]", "value": 3.13, "unit": "mg/L"}, {"measurement": "MIC", "setting": "[4]", "value": 1.56, "unit": "mg/L"}, {"measurement": "MIC", "setting": "Enterobacter cloacae 963", "value": 200, "unit": "mg/L"}, {"measurement": "MIC", "setting": "[5]", "value": "> 200", "unit": "mg/L"}, {"measurement": "MIC", "setting": "[6]", "value": 6.25, "unit": "mg/L"}, {"measurement": "MIC", "setting": "[7]", "value": 100, "unit": "mg/L"}, {"measurement": "MIC", "setting": "[8]", "value": "> 200", "unit": "mg/L"}, {"measurement": "MIC", "setting": "[9]", "value": 50, "unit": "mg/L"}, {"measurement": "MIC", "setting": "[10]", "value": 6.25, "unit": "mg/L"}, {"measurement": "MIC", "setting": "[11]", "value": 6.25, "unit": "mg/L"}, {"measurement": "MIC", "setting": "[12]", "value": 12.5, "unit": "mg/L"}, {"measurement": "MIC", "setting": "[13]", "value": 3.13, "unit": "mg/L"}, {"measurement": "MIC", "setting": "Proteus vulgaris HX-19", "value": 6.25, "unit": "mg/L"}, {"measurement": "MIC", "setting": "[14]", "value": 12.5, "unit": "mg/L"}, {"measurement": "MIC", "setting": "[15]", "value": 3.13, "unit": "mg/L"}, {"measurement": "MIC", "setting": "[16]", "value": 50, "unit": "mg/L"}, {"measurement": "MIC", "setting": "[17]", "value": 50, "unit": "mg/L"}, {"measurement": "MIC", "setting": "[18]", "value": "> 200", "unit": "mg/L"}, {"measurement": "MIC", "setting": "[20]", "value": 6.25, "unit": "mg/L"}, {"measurement": "MIC", "setting": "[21]", "value": 25, "unit": "mg/L"}, {"measurement": "MIC", "setting": "[22]", "value": "> 200", "unit": "mg/L"}, {"measurement": "MIC", "setting": "Salmonella typhi 901", "value": 12.5, "unit": "mg/L"}, {"measurement": "MIC", "setting": "[23]", "value": 6.25, "unit": "mg/L"}, {"measurement": "MIC", "setting": "Proteus vulgaris OX-19", "value": 6.25, "unit": "mg/L"}, {"measurement": "MIC", "setting": "[25]", "value": 200, "unit": "mg/L"}]}
